From ChEMBL document CHEMBL1136091, “Borrelidin induces the transcription of amino acid biosynthetic enzymes via a GCN4-dependent pathway” (Bioorg Med Chem Lett, 2003)
pIC50: −log10 of the molar value.

How the values were obtained:
Saccharomyces cerevisiae [1] = test: Ability to inhibit cell proliferation of Saccharomyces cerevisiae strain BY4741; type: functional, organism-based
[2] = target: Cyclin-dependent kinase 1 (Saccharomyces cerevisiae S288c, UniProt P00546); test: Inhibition of cyclin-dependent kinase activity of Cdc28p/CDK2p in Saccharomyces cerevisiae
Sequence of Cyclin-dependent kinase 1 (P00546 whole entry): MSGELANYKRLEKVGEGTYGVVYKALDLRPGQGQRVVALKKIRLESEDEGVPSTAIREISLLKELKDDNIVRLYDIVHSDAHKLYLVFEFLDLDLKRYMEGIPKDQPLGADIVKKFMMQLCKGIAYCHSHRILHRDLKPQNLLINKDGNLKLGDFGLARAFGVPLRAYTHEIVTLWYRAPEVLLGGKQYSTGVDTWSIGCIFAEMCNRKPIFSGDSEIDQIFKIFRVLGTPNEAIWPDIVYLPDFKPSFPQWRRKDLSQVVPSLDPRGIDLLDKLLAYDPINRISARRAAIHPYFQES

Saccharomyces cerevisiae [3] = test: Global transcription profiling experiment to examine the changes in the mRNA levels in the wt laboratory strain treated with the concentration of borrelidin ([…]) that inhibitedcontinued growth of wt yeast; type: functional

Work on `C[C@@H]1C[C@H](C)C[C@H](C)[C@@H](O)CC(=O)O[C@H]([C@@H]2CCC[C@H]2C(=O)O)C/C=C/C=C(/C#N)[C@H](O)[C@@H](C)C1` [BORRELIDIN] yielded a pIC50 (Saccharomyces cerevisiae [1]) of 4.64, a pIC50 [2] of 4.62 and an Inhibition (Saccharomyces cerevisiae [3]) of 75%.
